Structures are written as SMILES.

For the series, the system named is antibody in the antiserum of rabbit immunized by the acetylcholine bovine serum albumin immunogen. Description: Radioimmunoassay specificity: inhibition of binding of acetylcholine-H^3 to the antibody. The protocol: The volume was adjusted to 0.5 ml with phosphate-buffered saline, pH 7.4, which is the optimal pH for the assay. […]. […] After 2 washings with 50% saturated ammonium sulfate, the precipitate was dissolved in 0.5 ml of water. […] The 12 ml washings were all collected in the vial. The radioactivity was then counted with a Beckman liquid scintillation counter. The dilution of the antiserum chosen for further studies was 1:50.

Consider `CC(=O)OCC[N+](C)(C)C` [Acetylcholine, acetylcholine], for which the IC50 (read-out: concentration producing 50% inhibition of binding of acetylcholine --H^3 to the antibody, antiserum 1:50, incubated 2 hours at 4° C, pH 7.4, eserine present, ammonium sulfate precipitation) was found to be 0.03 nM.

With `CC(=O)O` [acetate], for the setting “antiserum incubated with acetate in the presence of labelled acetylcholine”, the “recognition by the antibody (competition with labelled acetylcholine)” value was “failed to recognize”.

The values above are taken from patent publication US4078049A, “Acetylcholine assay” (Hoffmann-La Roche Inc., priority 1977, dated 1978).
